Literature values, collected in patent US11642308B2, “Ready to use liquid formulation” (priority 2020, dated 2023).

Details: ≈25° C. and ≈1 bar

For `O=O` [oxygen], the solubility in water is given as “about 40 mg/L”.
